Results as given in US20050003000A1, “Method for the formation of ibuprofen crystals” (priority 2001, published 2005).
Blank lines part the entries; values can stand above or below the compound they belong to.

Experiment: Powder dissolution / in vitro release rate of the pure active compound, phosphate buffer pH 7.4 USP XXIV, paddle process 100 rpm
Type: physicochemical
Details: for Amount released [%] after 2 min: Table 3, ibuprofen crystallized by displacement precipitation; for Rate of dissolution (in words) / Active compound dissolved after 5 min / Active compound dissolved after 8 min: 3 l scale crystallizate
Procedure: The measurements of the release rate was carried out according to USP XXIV.
• 1. 80 g of ibuprofen are dissolved in 100 ml of isopropanol at 40° C. Precipitation is then carried out by addition of ice water (450 ml/stirrer speed 50 rpm) during the course of 70 min. During this process cooling to 10° C. takes place. The crystals are recovered by filtration and dried in vacuo. […] 3.2 g of sucrose monolaurate are added as an additive. Precipitation is then carried out by addition of ice water (450 ml/stirrer speed 200 rpm) during the course of 70 min. During this process cooling to 10° C. takes place. The crystals are recovered by filtration, washed with ice water (3×50 ml) and dried in vacuo. […] 8 g of Tween®80 are added as an additive. Precipitation is then carried out by addition of ice water (450 ml/stirrer speed 200 rpm) during the course of 70 min. During this process cooling to 10° C. takes place. The crystals are recovered by filtration, washed with ice water (3×50 ml) and dried in vacuo. […] 80 g of ibuprofen are dissolved in 100 ml of isopropanol at 40° C. 3 g of sucrose monolaurate are added as an additive. Precipitation is then carried out by addition of ice water (450 ml/stirrer speed 200 rpm) during the course of 70 min; during this process, cooling to 10° C. takes place; the crystals are recovered by filtration, washed with ice water (3×150 ml) and dried in vacuo.

[1] = Table 1, ibuprofen powder, time 0 min
[2] = Table 1, ibuprofen powder, time 2 min
[3] = Table 1, ibuprofen powder, time 5 min
[4] = Table 1, ibuprofen powder, time 8 min
[5] = Table 1, ibuprofen powder, time 10 min
[6] = Table 1, ibuprofen powder, time 15 min
[7] = Table 1, ibuprofen powder, time 20 min
[8] = Table 2, ibuprofen powder, time 0
[9] = Table 2, ibuprofen powder, time 2
[10] = Table 2, ibuprofen powder, time 5
[11] = Table 2, ibuprofen powder, time 8
[12] = Table 2, ibuprofen powder, time 10
[13] = Table 2, ibuprofen powder, time 15
[14] = Table 2, ibuprofen powder, time 20
[15] = powder dissolution, pure active compound, phosphate buffer pH 7.4 USP XXIV

Compound: CC(C)Cc1ccc(C(C)C(=O)O)cc1 (stereo not drawn) [Additive: sucrose monolaurate, ibuprofen]
Amount released [%] [1]: 0.0%
Amount released [%] [2]: 85.2%
Amount released [%] [3]: 98.8%
Amount released [%] [4]: 100.0%
Amount released [%] [5]: 100.0%
Amount released [%] [6]: 100.0%
Amount released [%] [7]: 100.0%
Amount released [%] [8]: 0.0%
Amount released [%] [9]: 85.9%
Amount released [%] [10]: 98.4%
Amount released [%] [11]: 99.5%
Amount released [%] [12]: 99.9%
Amount released [%] [13]: 100.7%
Amount released [%] [14]: 100.6%
Amount released [%] after 2 min: 85.2%

Compound: COc1ccc2cc([C@H](C)C(=O)O)ccc2c1 [Example 2, naproxen]
Time after which a 100% release is seen [15]: 15 s

Compound: CC(C)Cc1ccc(C(C)C(=O)O)cc1 (stereo not drawn) [Example 4, ibuprofen]
Time after which a 100% release / dissolution is seen [15]: 5 min
Release / dissolution within (after) 2 minutes [15]: 85%

Compound: CC(C)Cc1ccc(C(C)C(=O)O)cc1 (stereo not drawn) [Example 5, ibuprofen]
Time after which a 100% release / dissolution is seen [15]: 5 min
Release / dissolution within (after) 2 minutes [15]: 85%

Compound: CC(C)Cc1ccc(C(C)C(=O)O)cc1 (stereo not drawn) [Example 7, ibuprofen]
Time after which a 100% release / dissolution is seen [15]: 5 min
Release / dissolution within (after) 2 minutes [15]: 85%

Compound: CC(C)Cc1ccc(C(C)C(=O)O)cc1 (stereo not drawn) [Example 13, ibuprofen]
Rate of dissolution (in words): good rate of dissolution
Active compound dissolved after 5 min: 92%
Active compound dissolved after 8 min: 100%

Compound: CC(C)Cc1ccc(C(C)C(=O)O)cc1 (stereo not drawn) [Example 14, ibuprofen]
Rate of dissolution (in words): good rate of dissolution

Compound: CC(C)Cc1ccc(C(C)C(=O)O)cc1 (stereo not drawn) [Suc. monolaurate + HPC, ibuprofen]
Amount released [%] after 2 min: 100.8%

Compound: CC(C)Cc1ccc(C(C)C(=O)O)cc1 (stereo not drawn) [Suc. monolaurate + Klucel ® LF, ibuprofen]
Amount released [%] after 2 min: 98.9%

Compound: CC(C)Cc1ccc(C(C)C(=O)O)cc1 (stereo not drawn) [Suc. monolaurate + dextran 200, ibuprofen]
Amount released [%] after 2 min: 100.4%

Compound: CC(C)Cc1ccc(C(C)C(=O)O)cc1 (stereo not drawn) [Suc. monolaurate + trehalose, ibuprofen]
Amount released [%] after 2 min: 100.1%

Second part, the compound after the results:

Amount released [%] [1]: 0.0%
Amount released [%] [2]: 15.1%
Amount released [%] [3]: 36.9%
Amount released [%] [4]: 59.5%
Amount released [%] [5]: 73.9%
Amount released [%] [6]: 98.0%
Amount released [%] [7]: 99.0%
Amount released [%] [8]: 0.0%
Amount released [%] [9]: 15.1%
Amount released [%] [10]: 36.9%
Amount released [%] [11]: 59.5%
Amount released [%] [12]: 73.9%
Amount released [%] [13]: 98.0%
Amount released [%] [14]: 99.0%
Amount released [%] after 2 min: 15.1%
Time after which a 100% release / dissolution is seen [15]: > 15 min
Release / dissolution within (after) 2 minutes [15]: < 20%
Compound: CC(C)Cc1ccc(C(C)C(=O)O)cc1 (stereo not drawn) [Commercial article, ibuprofen]

Time after which a 100% release / dissolution is seen [15]: 15 min
Compound: CC(C)Cc1ccc(C(C)C(=O)O)cc1 (stereo not drawn) [Example 1, ibuprofen]

Time after which a 100% release / dissolution is seen [15]: 5 min
Release / dissolution within (after) 2 minutes [15]: 85%
Compound: CC(C)Cc1ccc(C(C)C(=O)O)cc1 (stereo not drawn) [Example 6, ibuprofen]

Rate of dissolution (in words): comparatively good rate of dissolution
Active compound dissolved after 5 min: 81%
Active compound dissolved after 8 min: 90%
Compound: CC(C)Cc1ccc(C(C)C(=O)O)cc1 (stereo not drawn) [Example 11, ibuprofen]

Rate of dissolution (in words): good rate of dissolution
Active compound dissolved after 5 min: 87%
Active compound dissolved after 8 min: 95%
Compound: CC(C)Cc1ccc(C(C)C(=O)O)cc1 (stereo not drawn) [Example 12, ibuprofen]

Rate of dissolution (in words): good rate of dissolution
Compound: CC(C)Cc1ccc(C(C)C(=O)O)cc1 (stereo not drawn) [Example 15, ibuprofen]

Time after which a 100% release / dissolution is seen [15]: approximately 5 min
Compound: CC(C)Cc1ccc(C(C)C(=O)O)cc1 (stereo not drawn) [Example 18, ibuprofen]

Amount released [%] [1]: 0.0%
Amount released [%] [2]: 20.9%
Amount released [%] [3]: 48.9%
Amount released [%] [4]: 67.2%
Amount released [%] [5]: 76.5%
Amount released [%] [6]: 94.3%
Amount released [%] [7]: 100.0%
Compound: CC(C)Cc1ccc(C(C)C(=O)O)cc1 (stereo not drawn) [Solvent change without addition, ibuprofen]

Amount released [%] after 2 min: 97.8%
Compound: CC(C)Cc1ccc(C(C)C(=O)O)cc1 (stereo not drawn) [Suc. monolaurate + Kollicoat ® IR, ibuprofen]
